Laboratory results as given in US10844051B2, “Substituted oxazoles for the treatment of cancer” (THE ROYAL INSTITUTION FOR THE ADCANCEMENT OF …, priority 2015, dated 2020).
Entries after “also recorded” stand apart in the source; their conditions may differ.

Assays:
[1] = target: T1, human GATA2 (Homo sapiens, UniProt P23769); experiment: GATA2-dependent reporter assay in IHH cells; type: cell-based; settings: GATA-Luc reporter, 48 h
T1 construct: expressed in transfected cells; host or cells: IHH
T1 sequence (P23769 1-480): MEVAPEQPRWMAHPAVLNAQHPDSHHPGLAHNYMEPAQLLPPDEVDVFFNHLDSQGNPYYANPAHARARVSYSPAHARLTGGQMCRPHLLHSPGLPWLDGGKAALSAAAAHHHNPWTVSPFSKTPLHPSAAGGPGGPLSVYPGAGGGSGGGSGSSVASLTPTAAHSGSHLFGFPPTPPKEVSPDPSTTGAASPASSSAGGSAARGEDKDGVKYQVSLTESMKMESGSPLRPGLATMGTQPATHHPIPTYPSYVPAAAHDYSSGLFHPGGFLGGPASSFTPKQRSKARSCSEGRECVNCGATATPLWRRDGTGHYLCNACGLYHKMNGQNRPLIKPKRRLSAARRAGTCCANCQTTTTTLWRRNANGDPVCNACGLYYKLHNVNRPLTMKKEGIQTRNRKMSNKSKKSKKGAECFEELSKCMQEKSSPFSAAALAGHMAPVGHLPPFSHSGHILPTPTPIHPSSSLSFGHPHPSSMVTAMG
Procedure: K7174 is a known GATA2 inhibitor. The IHH cells were transiently transfected with empty vector (for the NT) or human GATA2-expressing plasmid as well as pRL-TK (internal control) and GATA-Luc reporter plasmids. Cells were exposed to DMSO vehicle or compounds for 48 h. Experiments were in triplicate.

[2] = target: T2, human GATA3 (Homo sapiens, UniProt P23771); experiment: GATA3-dependent reporter assay in IHH cells; type: cell-based; settings: 48 hours
T2 construct: expressed in transfected cells; host or cells: IHH
Procedure: The IHH cells were transiently transfected with empty vector (for the NT) or human GATA3-expressing plasmid as well as pRL-TK (internal control) and GATA-Luc reporter plasmids. Cells were exposed to DMSO vehicle or compounds for 48 hours. Experiments were done in triplicate.

[3] = target: T3, recombinant protein of human GATA2 (Homo sapiens, UniProt P23769); experiment: SPR analysis on amine-coupled GATA2; type: binding; settings: 50 μM each
T3 sequence (P23769 1-480): T1 sequence (P23769 1-480)
Text: In embodiments of the invention, the androgen-bound AR is regressing GATA2 expression and inhibition of AR via castration or use of antiandrogen releases such expression. […] Overexpression of GATA2 confers resistance to antiandrogen bicalutamide (Bic) (FIG. 2.9). Compound 673 is effective against the LNCaP stably transfected with GATA2-expressing plasmid (referred to as LNCaP-GATA2 cells) (FIG. 2.8).

[4] = target: T4, human STING (hSTING) (Homo sapiens, UniProt Q86WV6); experiment: hSTING ISRE-luc reporter assay in 293T cells; type: cell-based; settings: 24 hours
T4 construct: expressed in transfected cells; host or cells: 293T
Procedure: ISRE-luc (reporter), pRL-TK (internal control) and hSTING-expressing plasmids were transiently transfected into 293T cells. Cells were exposed to DMSO vehicle control or compounds for 24 hours. Experiments were done in triplicate.

[5] = target: T5, mouse STING (mSTING) (Mus musculus, UniProt Q3TBT3); experiment: mSTING ISRE-luc reporter assay in 293T cells; type: cell-based; settings: 24 hours
T5 construct: expressed in transfected cells; host or cells: 293T
T5 sequence (Q3TBT3 1-378): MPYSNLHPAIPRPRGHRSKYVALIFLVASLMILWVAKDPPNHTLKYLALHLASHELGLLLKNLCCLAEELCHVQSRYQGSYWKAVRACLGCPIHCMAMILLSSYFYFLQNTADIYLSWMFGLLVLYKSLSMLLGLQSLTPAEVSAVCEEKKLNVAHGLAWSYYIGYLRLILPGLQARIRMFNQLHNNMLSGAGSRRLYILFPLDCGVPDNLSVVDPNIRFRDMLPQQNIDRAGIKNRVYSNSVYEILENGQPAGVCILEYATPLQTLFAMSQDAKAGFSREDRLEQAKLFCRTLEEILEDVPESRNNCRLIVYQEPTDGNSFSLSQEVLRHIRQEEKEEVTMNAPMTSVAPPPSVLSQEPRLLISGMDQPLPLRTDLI
Procedure: ISRE-luc (reporter), pRL-TK (internal control) and mSTING-expressing plasmids were transiently transfected into 293T cells. Cells were exposed to DMSO vehicle control or compounds for 24 hours. Experiments were done in triplicate.

[6] = target: human STING (Homo sapiens, UniProt Q86WV6); experiment: SPR analysis on amine-coupled human STING; type: binding; settings: 0-50 μM, 2-fold dilution series
[7] = target: T6, ETV1 (Homo sapiens, UniProt P50549); experiment: ETV1-dependent reporter assay in HEK293 cells; type: cell-based; settings: 48 hours
T6 construct: expressed in transfected cells; host or cells: HEK293
T6 sequence (P50549 1-477): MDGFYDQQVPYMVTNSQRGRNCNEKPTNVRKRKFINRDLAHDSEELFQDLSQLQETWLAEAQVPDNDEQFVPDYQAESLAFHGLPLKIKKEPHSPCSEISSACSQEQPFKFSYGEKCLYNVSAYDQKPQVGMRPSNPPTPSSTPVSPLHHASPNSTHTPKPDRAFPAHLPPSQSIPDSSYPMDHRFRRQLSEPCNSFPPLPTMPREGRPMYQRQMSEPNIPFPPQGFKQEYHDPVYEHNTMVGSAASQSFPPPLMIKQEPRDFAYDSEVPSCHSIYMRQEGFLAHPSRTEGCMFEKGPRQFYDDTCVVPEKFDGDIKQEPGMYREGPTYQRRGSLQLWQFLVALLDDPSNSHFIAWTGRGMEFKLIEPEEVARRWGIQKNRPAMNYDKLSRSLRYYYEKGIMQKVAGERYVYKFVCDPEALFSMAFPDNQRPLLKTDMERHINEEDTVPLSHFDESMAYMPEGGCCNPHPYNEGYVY
Procedure: HEK293 cells were transiently transfected with empty vector (for the NT) or ERG-expressing plasmid as well as pRL-TK (internal control) and PUx3-Luc reporter. Cells were then exposed to DMSO vehicle or compounds at designated doses for 48 hours. Experiments were done in triplicate.
Experiments were done as described above in FIG. 1.1a) except that ERG plasmid was replaced by ETV1 plasmid.

[8] = system: LNCaP cells; experiment: MTT cytotoxicity assay in ETV1-positive LNCaP cells; type: cell-based; settings: 72 hours
Procedure: FIG. 1.8 Cytotoxicity of compounds 827 and 832 in the ETV1-postive LNCaP cells as evaluated by MTT assay (72 hours).

[9] = target: T7, recombinant human KRAS 12D mutant protein (Homo sapiens, UniProt P01116, G12D); experiment: SPR analysis on amine-coupled KRAS (G12D mutant); type: binding
T7 construct: purchased ORIGENE TP700052
Procedure: FIG. 4.1 SPR analysis. Left panels, SPR sensorgrams for compounds 784 and 895 binding to 3500 RU amine-coupled KRAS (G12D mutant) at 25 μL/min in PBS-T containing 1 μM GDP. Right panels, corresponding non-linear regression analyses of steady-state binding responses versus concentration to determine apparent equilibrium dissociation constants (KD).
Since activation of KRAS leads to activation of NF-kB,^69 we performed in vitro screening of our compounds by KRAS mutant-dependent NF-kB-luc reporter assay in HEK293 cells. […] Also, compounds of the invention are cytotoxic to PANC 10.05 pancreatic cancer cells, H23 NSCLC cells and HCT-116 colorectal cancer cells (FIG. 4.5).

[10] = system: phosphorylation of ERK in Panc 10.05 cells; experiment: Western blot, phosphorylation of ERK in Panc 10.05 cells; type: cell-based; settings: 24 hours
Procedure: (§1) C-PARP, cleaved PARP. Panc10.05 cells were exposed to DMSO vehicle or compounds at designated doses for 24 hours.
Panc10.05 cells were exposed to DMSO vehicle or compounds at designated doses for 24 hours.

[11] = system: Panc 10.05 cells; experiment: Western blot, apoptosis (cleaved PARP) in Panc 10.05 cells; type: cell-based; settings: 24 hours
Procedure: as §1

[12] = system: phosphorylation of ERK in HCT-116 cells; experiment: Western blot, phosphorylation of ERK in HCT-116 cells; type: cell-based; settings: 10 μM, 24 hours
Procedure: HCT-116 cells were exposed to DMSO vehicle or compounds at designated doses for 24 hours.

[13] = system: H23 KRAS-mutant NSCLC cells; experiment: MTT assay, H23; type: cell-based; settings: endogenous KRAS 12C, 72 hours
Procedure: FIG. 2.7 Compound 673 is cytotoxic in KRAS-mutant NSCLC cells (A549 and H23), but is not toxic the KRAS wild-type NSCLC cells (H322). Cells were exposed to vehicle or compounds (μM) for 72 hours. Viable cells were evaluated by MTT assays.
(§2) Panc 10.05, H23 and HCT-116 cells express endogenous KRAS 12D, 12C and 13D mutants, respectively. Cells were exposed to DMSO vehicle or compounds at designated doses for 72 hours. Experiments were done in triplicate.

[14] = system: Panc10.05 pancreatic cancer cells; experiment: MTT analysis, Panc10.05; type: cell-based; settings: endogenous KRAS 12D, 72 hours
Procedure: as §2

[15] = system: HCT-116 colorectal cancer cells; experiment: MTT analysis, HCT-116; type: cell-based; settings: endogenous KRAS 13D, 72 hours
Procedure: as §2

Sequence of human STING (Q86WV6 whole entry H232R): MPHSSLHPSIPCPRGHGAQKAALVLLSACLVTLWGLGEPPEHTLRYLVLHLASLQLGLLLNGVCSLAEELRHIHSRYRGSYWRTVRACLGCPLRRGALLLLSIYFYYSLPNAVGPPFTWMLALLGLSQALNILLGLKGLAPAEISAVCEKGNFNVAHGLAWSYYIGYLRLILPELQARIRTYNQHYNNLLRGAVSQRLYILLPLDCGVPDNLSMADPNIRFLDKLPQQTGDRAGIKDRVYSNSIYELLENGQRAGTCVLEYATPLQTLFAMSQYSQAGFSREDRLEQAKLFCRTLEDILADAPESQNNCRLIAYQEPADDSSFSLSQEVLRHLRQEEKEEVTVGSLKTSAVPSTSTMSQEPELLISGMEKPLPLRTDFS
T2 sequence (P23771 whole entry): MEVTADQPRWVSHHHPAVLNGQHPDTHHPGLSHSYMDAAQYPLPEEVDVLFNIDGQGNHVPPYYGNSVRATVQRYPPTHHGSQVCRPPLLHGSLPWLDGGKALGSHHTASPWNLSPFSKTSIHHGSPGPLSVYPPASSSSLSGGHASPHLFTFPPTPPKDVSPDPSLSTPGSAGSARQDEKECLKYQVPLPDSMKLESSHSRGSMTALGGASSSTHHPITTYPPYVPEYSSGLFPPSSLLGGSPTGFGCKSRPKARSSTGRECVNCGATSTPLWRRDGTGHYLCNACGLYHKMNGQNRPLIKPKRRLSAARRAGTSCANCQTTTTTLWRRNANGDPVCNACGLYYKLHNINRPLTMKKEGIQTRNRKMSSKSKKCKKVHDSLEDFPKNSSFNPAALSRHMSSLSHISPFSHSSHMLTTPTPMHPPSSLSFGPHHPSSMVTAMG
T7 sequence (P01116 1-188 isoform P01116-2 G12D): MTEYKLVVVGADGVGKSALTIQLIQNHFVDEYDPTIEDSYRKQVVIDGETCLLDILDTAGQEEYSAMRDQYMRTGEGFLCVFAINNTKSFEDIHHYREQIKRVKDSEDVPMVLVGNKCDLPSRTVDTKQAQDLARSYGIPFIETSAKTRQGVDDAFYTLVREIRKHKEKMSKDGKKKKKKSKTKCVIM
T4 sequence (Q86WV6 whole entry H232R): as the sequence (Q86WV6 whole entry H232R) above

Row | ETV1 inhibition in ETV1-dependent reporter assay [7] | SMILES | cytotoxicity in ETV1-positive LNCaP cells (MTT) [8] | suppression of phosphorylation of ERK (Western blot) [12] | inhibition of proliferation of H23 cells (MTT) [13] | inhibition of proliferation of Panc10.05 cells (MTT) [14] | inhibition of proliferation of HCT-116 cells (MTT) [15] | also measured
1 | – | c1coc(-c2nc(CCCc3c[nH]c4ccccc34)[nH]c2-c2ccco2)c1 [Compound 817] | – | – | – | – | – | GATA2 inhibition in GATA2-dependent reporter assay [1]: GATA2 inhibitors; activity against GATA3 in GATA3-dependent reporter assay ([2]; 10 μM): inactive against GATA3; activity against GATA3 in GATA3-dependent reporter assay ([2]; compounds at 5 μM): inactive against GATA3; binding to amine-coupled GATA2 (SPR) [3]: Direct binding; also recorded: Specific binding; activation of hSTING in ISRE-luc reporter assay [4]: activate hSTING; activation of mSTING in ISRE-luc reporter assay [5]: activate mouse STING (mSTING); binding to amine-coupled human STING (SPR) [6]: Specific, dose-dependent binding; also recorded: Direct binding
2 | ETV1 inhibitors | c1coc(-c2nc(Cc3c[nH]c4ccccc34)oc2-c2ccco2)c1 [Compound 827] | cytotoxic | – | – | – | – | –
3 | ETV1 inhibitors | c1coc(-c2nc(Cc3c[nH]c4ccccc34)[nH]c2-c2ccco2)c1 [Compound 832] | cytotoxic | – | – | – | – | –
4 | – | COc1ccc(CC/C(=C/C(=O)N2CCC(O)(c3ccccc3)CC2)c2ccccc2)cc1F [Compound 895] | – | potently suppressed phosphorylation of ERK | – | – | – | direct binding with KRAS G12D mutant (SPR) [9]: Direct binding; Kd ([9]; PBS-T containing 1 μM GDP, steady-state): 45 µM; suppression of phosphorylation of ERK (Western blot) ([10]; designated doses): dose-dependently suppressed phosphorylation of ERK; induction of apoptosis (cleaved PARP, Western blot) [11]: induced apoptosis
5 | – | N#CCN(CCc1c[nH]c2ccccc12)Cc1nc(-c2cccc(F)c2)c(-c2cccc(F)c2)[nH]1 [Compound 1186] | – | potently suppressed phosphorylation of ERK | dose-dependently inhibit proliferation | dose-dependently inhibit proliferation | dose-dependently inhibit proliferation | suppression of phosphorylation of ERK (Western blot) ([10]; 10 μM): potently suppressed phosphorylation of ERK
6 | – | COc1ccc(CC/C(=C/C(=O)N2CCN(c3ccccc3OC)CC2)c2ccccc2)cc1F [Compound 1261] | – | – | dose-dependently inhibit proliferation | dose-dependently inhibit proliferation | dose-dependently inhibit proliferation | –
